# In patent US8044074B2, “Substituted heterocycles, their use as medicament, and pharmaceutical preparations comprising them” (Sanofi-Aventis, priority 2005, dated 2011):
# pIC50: −log10 of the molar value.
# Target: Human TASK-1 channels (UniProt O14649)
# Assay: Activity on the TASK-1 channel, two-microelectrode voltage clamp on xenopus oocytes
# Assay type: cell-based
# Conditions: TASK-1 expressed in Xenopus laevis oocytes; percent inhibition of control current fitted with Hill equation; room temperature; read-out: mTask-1 IC-50
# Procedure: Determination of the Activity on the TASK-1 Channel
# Human TASK-1 channels were expressed in xenopus oocytes. For this purpose, firstly oocytes were isolated from Xenopus laevis and defolliculated. TASK-1-encoding RNA synthesized in vitro was then injected into these oocytes. After TASK-1 protein expression for 2 days, TASK-1 currents were measured on the oocytes using the two-microelectrode voltage clamp technique. The TASK-1 channels were in this case usually activated with voltage jumps lasting 250 ms to 40 mV. A solution of the following composition flowed through the bath: NaCl 96 mM, KCl 2 mM, CaCl2 1.8 mM, MgCl2 1 mM, HEPES 5 mM (titrated to pH 7.4 with NaOH). These experiments were carried out at room temperature. The following were employed for data acquisition and analysis: Geneclamp amplifier (Axon Instruments, Foster City, USA) and MacLab D/A converter and software (ADinstruments, Castle Hill, Australia). The substances of the invention were tested by adding them in various concentrations to the bath solution. The effects of the substances were calculated as percent inhibition of the TASK-1 control current which was obtained when no substance was added to the solution. The data were then extrapolated using the Hill equation in order to determine the half-maximum inhibitory concentrations (IC50) for the respective substances.
row,pIC50,SMILES
1,5.51,"O=c1ccccn1[C@@H](c1ccc(F)cc1)[C@H](OCC1CC1)c1ccc(F)cc1 (racemic) [Example 9, 1R′,2S′-1-[2-Cyclopropylmethoxy-1,2-bis-(4-fluorophenyl)ethyl]-1H-pyridin-2-one]"

# Target: T1, Human Kv1.5 channels (Homo sapiens, UniProt P22460)
# T1 construct: expressed in transfected cells; host or cells: Xenopus laevis oocytes (injection of RNA synthesized in vitro)
# Assay: Activity on the Kv1.5 channel, two-microelectrode voltage clamp on xenopus oocytes
# Assay type: cell-based
# Conditions: human Kv1.5 expressed in Xenopus laevis oocytes; percent inhibition of control current fitted with Hill equation; room temperature; read-out: Kv1.5 IC-50
# Procedure: Determination of the Activity on the Kv1.5 Channel
# Human Kv1.5 channels were expressed in xenopus oocytes. For this purpose, firstly oocytes were isolated from Xenopus laevis and defolliculated. Kv1.5-encoding RNA synthesized in vitro was then injected into these oocytes. After Kv1.5 protein expression for 1-7 days, Kv1.5 currents were measured on the oocytes using the two-microelectrode voltage clamp technique. The Kv1.5 channels were in this case usually activated with voltage jumps lasting 500 ms to 0 mV and 40 mV. A solution of the following composition flowed through the bath: NaCl 96 mM, KCl 2 mM, CaCl2 1.8 mM, MgCl2 1 mM, HEPES 5 mM (titrated to pH 7.4 with NaOH). These experiments were carried out at room temperature. The following were employed for data acquisition and analysis: Geneclamp amplifier (Axon Instruments, Foster City, USA) and MacLab D/A converter and software (ADinstruments, Castle Hill, Australia). The substances of the invention were tested by adding them in various concentrations to the bath solution. The effects of the substances were calculated as percent inhibition of the Kv1.5 control current which was obtained when no substance was added to the solution. The data were then extrapolated using the Hill equation in order to determine the inhibitory concentrations IC50 for the respective substances.
# T1 sequence (P22460 whole entry): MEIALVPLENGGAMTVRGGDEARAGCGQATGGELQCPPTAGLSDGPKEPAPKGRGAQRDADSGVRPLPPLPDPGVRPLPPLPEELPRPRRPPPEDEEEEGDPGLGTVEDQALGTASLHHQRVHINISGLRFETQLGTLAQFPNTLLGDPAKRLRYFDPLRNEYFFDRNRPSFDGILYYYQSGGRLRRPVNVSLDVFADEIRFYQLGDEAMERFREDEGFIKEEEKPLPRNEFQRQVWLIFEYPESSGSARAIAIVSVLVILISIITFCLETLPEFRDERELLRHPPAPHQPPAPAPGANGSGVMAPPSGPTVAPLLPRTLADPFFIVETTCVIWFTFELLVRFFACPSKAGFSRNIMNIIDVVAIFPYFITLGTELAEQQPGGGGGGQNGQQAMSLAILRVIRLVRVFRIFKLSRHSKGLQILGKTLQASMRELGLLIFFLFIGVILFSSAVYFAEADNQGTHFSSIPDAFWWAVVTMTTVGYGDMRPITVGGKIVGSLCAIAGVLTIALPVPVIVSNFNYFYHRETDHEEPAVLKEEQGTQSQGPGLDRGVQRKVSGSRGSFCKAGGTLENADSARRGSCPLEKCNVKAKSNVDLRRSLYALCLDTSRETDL
row,SMILES,pIC50
1,"O=c1ccc(F)cn1C(c1ccc(F)cc1)C(OC1CC1)c1ccc(F)cc1 (racemic) [Example 6, 1-[2-Cyclopropoxy-1,2-bis-(4-fluorophenyl)ethyl]-5-fluoro-1H-pyridin-2-one]",5.19
2,"O=c1ccccn1C(c1ccccc1)C(OCC1CC1)c1ccc(Cl)cc1 (racemic) [Example 7, 1-[2-(4-Chlorophenyl)-2-cyclopropylmethoxy-1-phenylethyl]-1H-pyridin-2-one]",6.74
3,"COc1ccc([C@@H](OCC2CC2)[C@H](c2ccc(F)cc2)n2ccccc2=O)cc1 (racemic) [Example 2, 1R′,2S′-1-[2-Cyclopropylmethoxy-1-(4-fluorophenyl)-2-(4-methoxy-phenyl)ethyl]-1H-pyridin-2-one]",5.89
4,"O=c1ccc(F)cn1C(c1ccccc1)C(OCC1CC1)c1ccccc1 (racemic) [Example 3, 1-(2-Cyclopropylmethoxy-1,2-diphenylethyl)-5-fluoro-1H-pyridin-2-one]",6.11
5,"N#Cc1ccc(O[C@H](c2ccc(F)cc2)[C@@H](c2ccc(F)cc2)n2cc(F)ccc2=O)cc1 (racemic) [Example 5, 1R′,2R′-5-Fluoro-1-(2-p-cyanophenoxy-1,2-di-p-fluorophenylethyl)-1H-pyridin-2-one]",4.30 to 4.70
6,"O=c1ccccn1[C@H](c1ccccc1)[C@H](OCC1CC1)c1ccccc1 (racemic) [Example 1, 1R′,2R′-1-(2-Cyclopropylmethoxy-1,2-diphenylethyl)-1H-pyridin-2-one]",6.42
7,"O=c1cccnn1C(c1ccccc1)C(OCC1CC1)c1ccc(Cl)cc1 (racemic) [Example 4, 2-[2-(4-Chlorophenyl)-2-cyclopropylmethoxy-1-phenylethyl]-2H-pyridazin-3-one]",5.98
8,"O=c1ccccn1[C@H](c1ccc(F)cc1)[C@H](OCC1CC1)c1ccc(F)cc1 (racemic) [Example 8, 1R′,2R′-1-[2-Cyclopropylmethoxy-1,2-bis(4-fluorophenyl)ethyl]-1H-pyridin-2-one]",6.48

# The next lines start with the values.
row,pIC50,SMILES
1,5.69,"N#Cc1ccc(C(OCC2CC2)C(c2ccc(F)cc2)n2ccccc2=O)cc1 (racemic) [Example 11, 4-[1-Cyclopropylmethoxy-2-(4-fluorophenyl)-2-(2-oxo-2H-pyridin-1-yl)ethyl]benzonitrile]"
2,5.35,"COc1ccc(CO[C@H](c2ccc(OC)cc2)[C@@H](c2ccc(F)cc2)n2ccccc2=O)cc1 (racemic) [Example 13, 1R′,2R′-1-[1-(4-Fluorophenyl)-2-(4-methoxybenzyloxy)-2-(4-methoxyphenyl)ethyl]-1H-pyridin-2-one]"
3,5.74,"COc1ccc([C@@H](OCC2CC2)[C@@H](c2ccc(F)cc2)n2ccccc2=O)cc1 (racemic) [Example 17, 1R′,2R′-1-[2-Cyclopropylmethoxy-1-(4-fluorophenyl)-2-(4-methoxyphenyl)ethyl]-1H-pyridin-2-one]"
4,5.83,"O=c1ccc(F)cn1[C@H](c1ccccc1)[C@H](OCC1CC1)c1ccccc1 (racemic) [Example 12, 1R′,2R′-1-(2-Cyclopropylmethoxy-1,2-diphenylethyl)-5-fluoro-1H-pyridin-2-one]"
5,6.39,"O=c1ccccn1[C@@H](c1ccc(F)cc1)[C@H](OCC1CC1)c1ccc(F)cc1 (racemic) [Example 9, 1R′,2S′-1-[2-Cyclopropylmethoxy-1,2-bis-(4-fluorophenyl)ethyl]-1H-pyridin-2-one]"
6,5.34,"O=c1ccc(F)cn1C(c1ccc(F)cc1)C(OCC1CC1)c1ccc(F)cc1 (racemic) [Example 16, 1-[2-Cyclopropylmethoxy-1,2-bis-(4-fluorophenyl)ethyl]-5-fluoro-1H-pyridin-2-one]"
7,5.85,"O=c1ccccn1C(c1ccc(F)cc1)C(OCC1CC1)c1ccc(F)cc1 (racemic) [Example 14, 1-[2-Cyclopropylmethoxy-1,2-bis-(4-fluorophenyl)ethyl]-1H-pyridin-2-one]"
8,5.60,"N#Cc1ccc(COC(c2ccc(Cl)cc2)C(c2ccccc2)n2ccccc2=O)cc1 (racemic) [Example 15, 4-[1-(4-Chlorophenyl)-2-(2-oxo-2H-pyridin-1-yl)-2-phenylethoxymethyl]benzonitrile]"
9,6.06,"O=c1ccccn1C(c1ccc(F)cc1)C(OCC1CC1)c1ccc(Br)cc1 (racemic) [Example 10, 1-[2-(4-Bromophenyl)-2-cyclopropylmethoxy-1-(4-fluorophenyl)ethyl]-1H-pyridin-2-one]"
10,5.57,"COc1ccc(CO[C@H](c2ccc(OC)cc2)[C@H](c2ccc(F)cc2)n2ccccc2=O)cc1 (racemic) [Example 18, 1R′,2S′-1-[1-(4-Fluorophenyl)-2-(4-methoxybenzyloxy)-2-(4-methoxyphenyl)ethyl]-1H-pyridin-2-one]"
